Laboratory results: US6436975B1, “Pharmaceutical compositions for ulcer” (Nicox S.A., priority 2000, dated 2002)

Tests used:
[1] = test system: Cells of the human umbilical vein; assay: Nitric oxide generation by chemiluminiscence, endothelial cells; assay type: cell-based; conditions: incubation of 100 μM NO-donor, 5 minutes
Description: (§1) Specifically the test relates to the nitric oxide generation from the NO-donors described in the present invention, among which, for instance nitroglicerin, nicorandyl, nitroprussiate, etc., when they are put in the presence of endothelial cells (method a) or platelets (method b)
The incubation medium (physiologic solvent, for example Tyrode) has been then analyzed to determine the capability to generate NO, by:
1) the nitric oxide disclosure by chemiluminiscence;
As regards the chemiluminiscence analysis, an amount equivalent to 100 ul was injected in the reaction chamber of a chemiluminiscence analyzer containing glacial acetic acid and potassium iodide. Nitrites/nitrates present in the medium under these conditions are converted into NO which is then determined after its reaction with ozone, with consequent light generation. As it usually occurs in the devices measuring the chemiluminiscence, the produced luminiscence is directly proportional to the generated NO levels and can be measured by the suitable photomultiplier unit of a chemiluminiscence analyzer.
The photomultiplier converts the incident light into electric voltage, which is then quantitatively recorded. On the basis of a calibration curve, prepared with scalar nitrite concentrations, it was possible to quantitatively determine the generated NO concentration. […]

Washed human platelets = assay: Nitric oxide generation by chemiluminiscence, platelets; assay type: cell-based; conditions: incubation of 100 μM NO-donor, 5 minutes
Description: as §1
Washed human platelets, prepared analogously with what described by Radomski et al, (Br.J. Pharmacol. 92, 639-1987), were used. 0.4 ml alicuots were incubated with scalar NO-donor concentrations (1-100 μg/ml) for 5 minutes. The incubation medium (e.g. Tyrode) was then analyzed to determine the capability to generate NO, by determination of nitric oxide bv chemiluminiscence and CGMP, with the modalities described in the previous paragraph, for the analyses carried out on the endothelial cells. As to the determination by chemiluminiscence, also in this case, on the basis of a calibration curve, prepared with scalar nitrite concentrations, it was possible to quantitatively determine the generated NO concentration. For example, after incubation of 100 μM of nicorandyl, an amount equal to 35 μM of NO was generated.

rats = assay: Anti-ulcer activity, gastric lesions by absolute ethanol; assay type: in vivo; conditions: oral, 15 minutes before absolute ethanol (1 ml), evaluated one hour later; cimetidine 50 mg/Kg, composition 70 mg/Kg

| Compound | generated NO concentration [1] | generated NO concentration (Washed human platelets) | Gastric Damage (rats) |
| --- | --- | --- | --- |
| O=C(NCCO[N+](=O)[O-])c1cccnc1 [nicorandyl, N-[2-(nitroxy)ethyl]-3-pyridine-carboxamide] | about 10 μM | 35 µM |  |
| CN/C(=N/CCSCc1nc[nH]c1C)NC#N [Cimetidine] |  |  | 100% |
